Measured values reported in patent US20100113613A1, “CYCLOHEXANE POLYALCOHOL FORMULATION FOR TREATMENT OF DISORDERS OF PROTEIN AGGREGATION” (WARATAH PHARMACEUTICALS, priority 2006, published 2010).

What was measured:
in vivo [1] = settings: rat, po
Description: (§1) Three studies were performed to investigate the pharmacokinetics of oral administration of a scyllo-cyclohexanehexyl (Table 1):
Plasma pharmacokinetics (PK) of a scyllo-cyclohexanehexyl in rats was assessed after single oral doses of 15, 50 and 150 mg/kg. After single oral doses in rats, maximum plasma concentration (Cmax) and exposure (AUC0-t) values increased proportionally with dose level of the scyllo-cyclohexanehexyl. Other parameters were unchanged with dose level. The scyllo-cyclohexanehexyl was absorbed rapidly, with mean tmax observed between 1.0 and 2.2 hours post-dose. […] Estimates of mean residence time (MRT) were consistent. Volumes of distribution (Vdss) were large, indicating wide distribution of scyllo-cyclohexanehexyl in rats.

in vivo [2] = settings: dog, po
Description: as §1
Two studies have investigated the single dose PK of oral administration of a scyllo-cyclohexanehexyl in dogs. The 14 day study investigated 18 animals. On Day 1 of this study Cmax and AUC values increased proportionally with dose level of a scyllo-cyclohexanehexyl. […] The extensive brain penetrance of the scyllo-cyclohexanhexyl (see below) may be relevant in this regard.

[3] = Single oral and intravenous dose pharmacokinetics, dose range-finding study in beagle dogs; type: in vivo, beagle dog; settings: for Tmax: po; for Vd: read-out: VdSS
Description: PK of single oral doses of the scyllo-cyclohexanhexyl was also investigated in a preliminary fashion in a dose range-finding study in 5 beagle dogs. […] The Cmax and AUC values increased proportionally with dose, consistent with observations in the larger study. Estimates of t½ ranged from 2 to 5 hours. Neither dose nor route of administration had any clear effect on t½, MRT, Cl/F or Vdss.

[4] = beagle, dog, plasma, dogs, single intravenous dose 80 mg/kg
[5] = beagle, dog, plasma, dogs, single intravenous dose 240 mg/kg
[6] = beagle, dog, plasma, dogs, single oral dose 20 mg/kg
[7] = beagle, dog, plasma, dogs, single oral dose 80 mg/kg
[8] = beagle, dog, plasma, dogs, single oral dose 240 mg/kg

- AUC(0-inf) (in vivo [1]; 15 mg/kg): 41.9 ± 11.9 µg·h/mL
- AUC(0-t) (in vivo [1]; 15 mg/kg): 39.7 ± 11.3 µg·h/mL
- CL/F (in vivo [1]; 15 mg/kg): 12.8 mL/min/kg
- Cmax (in vivo [1]; 15 mg/kg): 13200 ± 2000 ng/mL
- MRT (in vivo [1]; 15 mg/kg): 3.7 ± 0.5 h
- Tmax (in vivo [1]; 15 mg/kg): 1 h
- Vd (in vivo [1]; 15 mg/kg): 2.82 L/kg
- half-life (in vivo [1]; 15 mg/kg): 2.7 ± 0.6 h
- kel (in vivo [1]; 15 mg/kg): 0.27 ± 0.07 h⁻¹
- AUC(0-inf) (in vivo [1]; 50 mg/kg): 169 ± 31.8 µg·h/mL
- AUC(0-t) (in vivo [1]; 50 mg/kg): 163 ± 29 µg·h/mL
- CL/F (in vivo [1]; 50 mg/kg): 10.1 mL/min/kg
- Cmax (in vivo [1]; 50 mg/kg): 45300 ± 7100 ng/mL
- MRT (in vivo [1]; 50 mg/kg): 3.6 ± 0.6 h
- Tmax (in vivo [1]; 50 mg/kg): 1.5 ± 0.5 h
- Vd (in vivo [1]; 50 mg/kg): 2.13 L/kg
- half-life (in vivo [1]; 50 mg/kg): 2.4 ± 0.2 h
- kel (in vivo [1]; 50 mg/kg): 0.29 ± 0.02 h⁻¹
- AUC(0-inf) (in vivo [1]; 150 mg/kg): 552 ± 154 µg·h/mL
- AUC(0-t) (in vivo [1]; 150 mg/kg): 537 ± 154 µg·h/mL
- CL/F (in vivo [1]; 150 mg/kg): 9.55 mL/min/kg
- Cmax (in vivo [1]; 150 mg/kg): 131000 ± 54800 ng/mL
- MRT (in vivo [1]; 150 mg/kg): 3.9 ± 0.7 h
- Tmax (in vivo [1]; 150 mg/kg): 2.2 ± 1.5 h
- Vd (in vivo [1]; 150 mg/kg): 2.24 L/kg
- half-life (in vivo [1]; 150 mg/kg): 2.1 ± 0.2 h
- kel (in vivo [1]; 150 mg/kg): 0.33 ± 0.03 h⁻¹
- AUC(0-inf) (in vivo [2]; 15 mg/kg): 23.8 ± 4.5 µg·h/mL
- AUC(0-t) (in vivo [2]; 15 mg/kg): 22.6 ± 4.5 µg·h/mL
- CL/F (in vivo [2]; 15 mg/kg): 3.04 mL/min/kg
- Cmax (in vivo [2]; 15 mg/kg): 10000 ± 2500 ng/mL
- MRT (in vivo [2]; 15 mg/kg): 3.5 ± 0.8 h
- Tmax (in vivo [2]; 15 mg/kg): 1.7 ± 0.5 h
- VdSS (in vivo [2]; 15 mg/kg): 0.6325 ± 0.2371 L/kg
- half-life (in vivo [2]; 15 mg/kg): 2 ± 0.8 h
- kel (in vivo [2]; 15 mg/kg): 0.4 ± 0.2 h⁻¹
- AUC(0-inf) (in vivo [2]; 50 mg/kg): 116 ± 22.8 µg·h/mL
- AUC(0-t) (in vivo [2]; 50 mg/kg): 114 ± 22.9 µg·h/mL
- CL/F (in vivo [2]; 50 mg/kg): 2.07 mL/min/kg
- Cmax (in vivo [2]; 50 mg/kg): 47400 ± 12700 ng/mL
- MRT (in vivo [2]; 50 mg/kg): 2.9 ± 0.3 h
- Tmax (in vivo [2]; 50 mg/kg): 1.2 ± 0.4 h
- VdSS (in vivo [2]; 50 mg/kg): 0.3659 ± 0.1219 L/kg
- half-life (in vivo [2]; 50 mg/kg): 2.1 ± 0.3 h
- kel (in vivo [2]; 50 mg/kg): 0.3 ± 0.04 h⁻¹
- AUC(0-inf) (in vivo [2]; 150 mg/kg): 455 ± 121 µg·h/mL
- AUC(0-t) (in vivo [2]; 150 mg/kg): 450 ± 118 µg·h/mL
- CL/F (in vivo [2]; 150 mg/kg): 1.56 mL/min/kg
- Cmax (in vivo [2]; 150 mg/kg): 124000 ± 22700 ng/mL
- MRT (in vivo [2]; 150 mg/kg): 3.3 ± 0.3 h
- Tmax (in vivo [2]; 150 mg/kg): 2.2 ± 0.4 h
- VdSS (in vivo [2]; 150 mg/kg): 0.3074 ± 0.0744 L/kg
- half-life (in vivo [2]; 150 mg/kg): 1.7 ± 0.2 h
- kel (in vivo [2]; 150 mg/kg): 0.4 ± 0.05 h⁻¹
- Tmax ([3]; beagle, dog, plasma, 20 mg/kg, dogs, single oral dose 20 mg/kg): 1.5 ± 0.6 h
- Tmax ([3]; beagle, dog, plasma, 80 mg/kg, dogs, single oral dose 80 mg/kg): 2 ± 1.2 h
- Tmax ([3]; beagle, dog, plasma, 240 mg/kg, beagle dogs, following an oral dose (20, 80 and 240 mg/kg)): 1.5 to 2 h
- Tmax ([3]; beagle, dog, plasma, 240 mg/kg, dogs, single oral dose 240 mg/kg): 2 ± 1.4 h
- bioavailability ([3]; beagle, dog, plasma, dogs, 80 mg/kg dose level, oral vs i.v.): > 90%
- AUC(0-inf) [3, 4]: 173 ± 9 µg·h/mL
- AUC(0-t) [3, 4]: 167 ± 7 µg·h/mL
- MRT [3, 4]: 4.6 ± 1.2 h
- Vd [3, 4]: 2.1 L/kg
- half-life ([3]; beagle, dog, plasma, dogs, single intravenous dose 80 mg/kg, read-out: t1/2 (converted)): 3.3 ± 0.3 h
- AUC(0-inf) [3, 5]: 248 ± 25 µg·h/mL
- AUC(0-t) [3, 5]: 244 ± 24 µg·h/mL
- MRT [3, 5]: 3.3 ± 0.5 h
- Vd [3, 5]: 3.22 L/kg
- half-life ([3]; beagle, dog, plasma, dogs, single intravenous dose 240 mg/kg, read-out: t1/2 (converted)): 2.3 ± 0.2 h
- AUC(0-inf) [3, 6]: 51.7 ± 15.7 µg·h/mL
- AUC(0-t) [3, 6]: 42.1 ± 8.4 µg·h/mL
- CL/F [3, 6]: 6.97 mL/min/kg
- Cmax [3, 6]: 5900 ± 3100 ng/mL
- MRT [3, 6]: 10.1 ± 5.9 h
- half-life ([3]; beagle, dog, plasma, dogs, single oral dose 20 mg/kg, read-out: t1/2 (converted)): 5 ± 3.9 h
- AUC(0-inf) [3, 7]: 246 ± 53 µg·h/mL
- AUC(0-t) [3, 7]: 243 ± 54 µg·h/mL
- CL/F [3, 7]: 5.63 mL/min/kg
- Cmax [3, 7]: 69000 ± 23500 ng/mL
- MRT [3, 7]: 4.1 ± 0.8 h
- half-life ([3]; beagle, dog, plasma, dogs, single oral dose 80 mg/kg, read-out: t1/2 (converted)): 2 ± 0.3 h
- AUC(0-inf) [3, 8]: 489 ± 99 µg·h/mL
- AUC(0-t) [3, 8]: 477 ± 94 µg·h/mL
- CL/F [3, 8]: 8.45 mL/min/kg
- Cmax [3, 8]: 89500 ± 27800 ng/mL
- MRT [3, 8]: 5.2 ± 0.2 h
- half-life ([3]; beagle, dog, plasma, dogs, single oral dose 240 mg/kg, read-out: t1/2 (converted)): 2 ± 0.4 h
- half-life ([3]; dog, plasma, other: oral and intravenous (range over both routes), beagle dogs, 20, 80 and 240 mg/kg p.o., 80 and 240 mg/kg i.v., read-out: t½): 2 to 5 h
- Cp0 ([3]; dogs, single intravenous dose 80 mg/kg): 87.2 ± 13.2 µg/mL
Compound: OC1C(O)C(O)C(O)C(O)C1O (centres unmarked) [AZD-103, scyllo-inositol]
